# Test results: patent publication US20250066359A1, “SOMATOSTATIN RECEPTOR SUBTYPE 5 ANTAGONISTS, AND PHARMACEUTICAL COMPOSITION AND USE THEREOF” (SHANGHAI INSTITUTE OF MATERIA MEDICA, CHINESE ACADEMY OF …, priority 2021, published 2025)
# pIC50: −log10 of the molar value.
# Columns and labels:
# hSSTR5 = molecular target: T1, hSSTR5 (Homo sapiens, UniProt P35346); experiment: SSTR5 antagonistic activity in vitro by calcium flow detection (hSSTR5-CHO-Gα16 cells); type: cell-based; conditions: for pIC50: hSSTR5-CHO-Gα16 cells, 100 nM Somatostatin-14 agonist, Fluo-4 fluorescence 525 nm; for SSTR5 antagonistic activity (in words): summary of Table 1
# T1 construct: expressed in transfected cells; host or cells: CHO cells co-expressing Gα16 (hSSTR5-CHO-Gα16)
# Excerpt: (§1) Testing SSTR5 antagonistic activity in vitro by Calcium flow detection method Experimental principle: After the receptor binds to the ligand and is activated, it can cause the activation of Gα16 protein, which further activates phospholipase C(PLC) to produce IP3 and DAG. IP3 can bind to the IP3 receptors on the endoplasmic reticulum and mitochondria in the cell, thereby causing the release of intracellular calcium. Therefore, measuring the changes in intracellular calcium can be used in the method to detect the activation state of hSSTR5. Fluo-4/AM is a calcium fluorescent probe indicator used to measure calcium ions. As a non-polar lipid-soluble compound, after it enters the cell, the AM group therein dissociates, and Fluo-4 is released under the action of cellular lipase; because Fluo-4 is a polar molecule and is not easy to pass through the lipid bilayer membrane, it can keep Fluo-4 in the cell fora longtime. Finally, the level of Ga protein activation can be reflected by measuring the intensity of the excited fluorescence. Somatostatin, an agonist of SSTR5, can activate SSTR5 receptors and greatly increase the calcium flow response. The SSTR5 antagonist to be tested can inhibit the agonist activity of the SSTR5 receptor and reduce the calcium increased flow response of the receptor stimulated by the agonist.
# (§2) • (1) The hSSTR5-CHO-Gα16 and mSSTR5-CHO-Gα16 cell lines stably expressing hSSTR5 or mSSTR5 receptors were seeded at a density of 30,000/well in a 96-well plate and cultured in a 37° C. incubator overnight. • (2) The cells was aspirated off the culture medium, added with freshly prepared dye at 40 μL/well, and incubated in a 37° C. incubator for 45 minutes. • (3) After the dye was aspirated and discarded, the cells were washed with freshly prepared calcium buffer and the culture medium was replaced with 50 μL of calcium buffer. • (4) The SSTR5 agonist Somatostatin-14 was diluted and mixed evenly with calcium buffer. • (5) Detection was performed using a Flextation instrument. Starting from the 15th second, 25 μL of the pre-prepared agonist was automatically added by the instrument, and the fluorescence value at 525 nm was read.
# mSSTR5 = molecular target: T2, mSSTR5 (Mus musculus, UniProt O08858); experiment: SSTR5 antagonistic activity in vitro by calcium flow detection (mSSTR5-CHO-Gα16 cells); type: cell-based; conditions: 100 nM Somatostatin-14 agonist, Fluo-4 fluorescence 525 nm
# T2 construct: expressed in transfected cells; host or cells: CHO cells co-expressing Gα16 (mSSTR5-CHO-Gα16)
# T2 sequence (O08858 1-362): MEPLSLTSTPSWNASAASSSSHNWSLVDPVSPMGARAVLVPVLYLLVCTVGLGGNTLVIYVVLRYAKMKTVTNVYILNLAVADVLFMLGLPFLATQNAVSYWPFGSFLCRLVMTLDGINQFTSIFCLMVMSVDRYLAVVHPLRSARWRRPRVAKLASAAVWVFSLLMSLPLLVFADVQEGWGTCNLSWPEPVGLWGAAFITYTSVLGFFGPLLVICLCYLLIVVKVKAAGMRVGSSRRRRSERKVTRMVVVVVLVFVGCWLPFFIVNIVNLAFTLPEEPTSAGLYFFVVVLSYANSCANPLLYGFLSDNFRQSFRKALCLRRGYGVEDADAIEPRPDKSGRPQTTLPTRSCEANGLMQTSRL
# Excerpt: as §1, §2
# T1 sequence (P35346 whole entry): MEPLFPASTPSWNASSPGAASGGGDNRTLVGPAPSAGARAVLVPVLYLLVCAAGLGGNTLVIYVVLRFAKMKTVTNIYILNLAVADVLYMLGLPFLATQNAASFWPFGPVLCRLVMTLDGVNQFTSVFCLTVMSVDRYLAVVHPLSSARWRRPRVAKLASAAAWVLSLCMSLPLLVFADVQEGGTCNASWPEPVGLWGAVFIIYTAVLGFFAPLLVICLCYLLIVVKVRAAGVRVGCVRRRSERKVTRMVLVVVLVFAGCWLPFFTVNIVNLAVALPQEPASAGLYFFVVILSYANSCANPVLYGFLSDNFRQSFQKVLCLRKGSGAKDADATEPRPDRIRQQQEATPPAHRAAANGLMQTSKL
pIC50 (hSSTR5),SSTR5 antagonistic activity (in words) (hSSTR5),pIC50 (mSSTR5),SMILES
6.70 to 7.30,–,–,"CCOc1cc(CN2CCC3(CCC(=O)N(c4ccc(C(=O)O)cc4)C3)CC2)cc(OCC)c1-c1ccc(F)cc1 [Example 1, 4-(9-((2,6-diethoxy-4′-fluoro-[1,1′-biphenyl]-4-yl)methyl)-3-oxo-2,9-diazaspiro[5.5]undec-2-yl)benzoic acid]"
7.30 to 10.00,potent SSTR5 antagonistic activity,6.70 to 7.30,"CCOc1cc(CN2CCC3C(CCN3c3ccc(C(=O)O)cc3)C2)cc(OCC)c1-c1ccc(F)cc1 (centres unmarked) [Example 2, 4-(5-((2,6-diethoxy-4′-fluoro-[1,1′-biphenyl]-4-yl)methyl)octahydro-1H-pyrrolo[3,2-c]pyridin-1-yl)benzoic acid]"
6.70 to 7.30,–,–,"CCOc1cc(CN2CCC3(CC2)CCN(c2ccc(C(=O)O)cc2)C(=O)C3)cc(OCC)c1-c1ccc(F)cc1 [Example 3, 4-(9-((2,6-diethoxy-4′-fluoro-[1,1′-biphenyl]-4-yl)methyl)-2-oxo-3,9-diazaspiro[5.5]undec-3-yl)benzoic acid]"
6.70 to 7.30,–,–,"CCOc1cc(CN2CCC(C3CN(c4ccc(C(=O)O)cc4)C3)CC2)cc(OCC)c1-c1ccc(F)cc1 [Example 4, 4-(3-(1-((2,6-diethoxy-4′-fluoro-[1,1′-biphenyl]-4-yl)methyl)piperidin-4-yl)azetidin-1-yl)benzoic acid]"
6.70 to 7.30,–,–,CCOc1cc(CN2CCC3(CC2)CN(c2ccc(C(=O)O)cc2)CCO3)cc(OCC)c1-c1ccc(F)cc1 [Example 5]
< 6.70,–,–,"CCOc1cc(CN2CC3(CC(Nc4ccc(C(=O)O)cc4)C3)C2)cc(OCC)c1-c1ccc(F)cc1 [Example 6, 4-((2-((2,6-diethoxy-4′-fluoro-[1,1′-biphenyl]-4-yl)methyl)-2-azaspiro[3.3]heptane-6-yl)amino)benzoic acid]"
7.30 to 10.00,potent SSTR5 antagonistic activity,7.30 to 10.00,"CCOc1cc(CN2CC3(CC(=O)N(c4ccc(C(=O)O)cc4)C3)C2)cc(OCC)c1-c1ccc(F)cc1 [Example 7, 4-(2-((2,6-diethoxy-4′-fluoro-[1,1′-biphenyl]-4-yl)methyl)-7-oxo-2,6-diazaspiro[3.4]octane-6-yl)benzoic acid]"
6.70 to 7.30,–,–,"CCOc1cc(CN2CC3(CC(=O)N(c4ccc(C(=O)O)cc4)C3)C2)c(C2CC2)cc1C [Example 8, 4-(2-(2-cyclopropyl-5-ethoxy-4-methylbenzyl)-7-oxo-2,6-diazaspiro[3.4]octane-6-yl)benzoic acid]"
6.70 to 7.30,–,–,"CCOc1ccc(C2CC2)c(CN2CC3(CC(=O)N(c4ccc(C(=O)O)cc4)C3)C2)c1 [Example 9, 4-(2-(2-cyclopropyl-5-ethoxybenzyl)-7-oxo-2,6-diazaspiro[3.4]octyl-6-yl)benzoic acid]"
7.30 to 10.00,potent SSTR5 antagonistic activity,7.30 to 10.00,"CCOc1cc(CN2CCC3(CC2)CN(c2ccc(C(=O)O)cc2)C3)cc(OCC)c1-c1ccc(F)cc1 [Example 10, 4-(7-((2,6-diethoxy-4′-fluoro-[1,1′-biphenyl]-4-yl)methyl)-2,7-diazaspiro[3.5]nonan-2-yl)benzoic acid]"
6.70 to 7.30,–,7.30 to 10.00,"CCOc1cc(CN2CCC3(CC2)CC(NS(=O)(=O)c2ccc(OC(F)(F)F)cc2)C3)cc(OCC)c1-c1ccc(F)cc1 [Example 11, N-(7-((2,6-diethoxy-4′-fluoro-[1,1′-biphenyl]-4-yl)methyl)-7-azaspiro[3.5]nonan-2-yl)-4-(trifluoromethoxy)benzenesulfonamide]"
7.30 to 10.00,potent SSTR5 antagonistic activity,7.30 to 10.00,"CCOc1cc(CN2CCN(C3CCN(S(=O)(=O)c4ccc(OC(F)(F)F)cc4)CC3)CC2)cc(OCC)c1-c1ccc(F)cc1 [Example 12, 1-((2,6-diethoxy-4′-fluoro-[1,1′-biphenyl]-4-yl)methyl)-4-(1-((4-(trifluoromethoxy)phenyl)sulfonyl)piperidin-4-yl)piperazine]"
< 6.70,–,–,CCOc1cc(CN2CCC(N3CCN(S(=O)(=O)c4ccc(OC(F)(F)F)cc4)CC3)CC2)cc(OCC)c1-c1ccc(F)cc1 [Example 13]
7.30 to 10.00,–,7.30 to 10.00,CCOc1cc(CN2CCC(C3CN(S(=O)(=O)c4ccc(OC(F)(F)F)cc4)C3)CC2)cc(OCC)c1-c1ccc(F)cc1 [Example 14]
< 6.70,–,–,"CCOc1cc(CN2CCN(C3CCN(S(=O)(=O)c4ccc(C(=O)O)cc4)CC3)CC2)cc(OCC)c1-c1ccc(F)cc1 [Example 15, 4-((4-(4-((2,6-diethoxy-4′-fluoro-[1,1′-biphenyl]-4-yl)methyl)piperazin-1-yl)piperidin-1-yl)sulfonyl)benzoic acid]"
< 6.70,–,–,"CCOc1cc(CN2CCN(S(=O)(=O)c3ccc(OC(F)(F)F)cc3)CC2)cc(OCC)c1-c1ccc(F)cc1 [Example 16, 1-((2,6-diethoxy-4′-fluoro-[1,1′-biphenyl]-4-yl)methyl)-4-((4-(trifluoromethoxy)phenyl)sulfonyl)piperazine]"
6.70 to 7.30,–,–,"CCOc1cc(CN2CCN(S(=O)(=O)c3ccc(C(=O)O)cc3)CC2)cc(OCC)c1-c1ccc(F)cc1 [Example 17, 4-((4-((2,6-diethoxy-4′-fluoro-[1,1′-biphenyl]-4-yl)methyl)piperazin-1-yl)sulfonyl)benzoic acid]"
7.30 to 10.00,potent SSTR5 antagonistic activity,–,"CCOc1cc(CN2CCC3(CC2)CN(c2ccc(C(=O)O)cc2)C3=O)cc(OCC)c1-c1ccc(F)cc1 [Example 18, 4-(7-((2,6-diethoxy-4′-fluoro-[1,1′-biphenyl]-4-yl)methyl)-1-oxo-2,7-diazaspiro[3.5]nonan-2-yl)benzoic acid]"
7.30 to 10.00,potent SSTR5 antagonistic activity,–,"CCOc1cc(CN2CCC3(CC2)CN(c2ccc(C(=O)O)cc2)C3)c(C2CC2)cc1C [Example 19, 4-(7-(2-cyclopropyl-5-ethoxy-4-methylbenzyl)-2,7-diazaspiro[3,5]nonan-2-yl)benzoic acid]"
6.70 to 7.30,–,–,"CCOc1cc(CN2CCC3(CC2)CN(c2ccc(C(=O)O)cc2)C3)c(-c2ccc(F)c(F)c2F)cc1C [Example 20, 4-(7-((4-ethoxy-2′,3′,4′-trifluoro-5-methyl-[1,1′-biphenyl]-2-yl)methyl)-2,7-diazaspiro[3,5]nonan-2-yl)benzoic acid]"
< 6.70,–,–,"CCOc1cc(CN2CC3(CC(=O)N(c4ccc(C(=O)O)cc4)C3)C2)ccc1F [Example 21, 4-(2-(3-ethoxy-4-fluorobenzyl)-7-oxy-2,6-diazaspiro[3.4]octan-6-yl)benzoic acid]"
< 6.70,–,–,"CCOc1cc(CN2CC3(CC(=O)N(c4ccc(C(=O)O)cc4)C3)C2)ccc1C [Example 22, 4-(2-(3-ethoxy-4-methylbenzyl)-7-oxy-2,6-diazaspiro[3.4]octan-6-yl)benzoic acid]"
< 6.70,–,–,"O=C(O)c1ccc(N2CC3(CC2=O)CN(Cc2cc(C(F)(F)F)ccc2C2CC2)C3)cc1 [Example 23, 4-(2-(2-cyclopropyl-5-(trifluoromethyl)benzyl)-7-oxo-2,6-diazaspiro[3.4]octyl-6-yl)benzoic acid]"
6.70 to 7.30,–,–,"CCOc1cc(CN2CCC3(CC2)CN(c2ccc(C(=O)O)cc2)C3)ccc1F [Example 24, 4-(7-(3-ethoxy-4-fluorobenzyl)-2,7-diazaspiro[3.5]nonan-2-yl)benzoic acid]"
6.70 to 7.30,–,–,"CCOc1cc(CN2CCC3(CC2)CN(c2ccc(C(=O)O)cc2)C3)ccc1N(CC)CC [Example 25, 4-(7-(4-(diethylamino)-3-ethoxybenzyl)-2,7-diazaspiro[3.5]nonan-2-yl)benzoic acid]"

SMILES,pIC50 (hSSTR5),SSTR5 antagonistic activity (in words) (hSSTR5),pIC50 (mSSTR5)
"CCOc1cc(CN2CC3(CC(=O)N(c4ccc(C(=O)O)cc4)C3)C2)ccc1O [Example 26, 4-(2-(3-ethoxy-4-hydroxybenzyl)-7-oxo-2,6-diazaspiro[3.4]octyl-6-yl)benzoic acid]",< 6.70,–,–
